One assay deals with hMcl-1 (Homo sapiens, UniProt Q07820). Put plainly: FP assay, displacement of F-Puma from hMcl-1. In kind it is binding.
The target in a further assay is hBcl-2 (Homo sapiens, UniProt P10415). In words: FP assay, displacement of F-Puma from hBcl-2. It counts as binding.
The target of another assay is mMcl-1 (Mus musculus, UniProt P97287). In words: 1H,15N HSQC NMR titration, Mcl-1. In kind it is binding. As to conditions: Mcl-1 Kd by 1H,15N HSQC NMR (N).
In a further assay the target is double His-TEV-hMcl-1 (Homo sapiens, UniProt Q07820). Put plainly: SPR direct binding, Mcl-1.
double His-TEV-hMcl-1, sequence (Q07820 171-327 limits assumed): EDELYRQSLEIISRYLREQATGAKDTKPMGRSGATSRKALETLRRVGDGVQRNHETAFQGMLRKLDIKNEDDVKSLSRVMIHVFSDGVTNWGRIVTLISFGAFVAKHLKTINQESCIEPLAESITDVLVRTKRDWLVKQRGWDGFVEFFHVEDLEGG
Assay [1] deals with Unmodified human Bcl-2 residues 1-207 (hBcl-2) (human, UniProt P10415 1-207). In words: fluorescence polarisation. (In fluorescence polarisation assays a small probe gives low polarisation when free and higher when bound to something large.)
Unmodified human Bcl-2 residues 1-207 (hBcl-2), sequence (P10415 1-207): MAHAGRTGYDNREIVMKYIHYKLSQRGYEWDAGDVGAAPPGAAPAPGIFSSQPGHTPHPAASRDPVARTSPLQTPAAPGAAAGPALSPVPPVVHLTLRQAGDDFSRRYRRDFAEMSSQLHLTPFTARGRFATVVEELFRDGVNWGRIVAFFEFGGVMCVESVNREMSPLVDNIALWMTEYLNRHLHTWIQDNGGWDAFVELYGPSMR
[2] abbreviates: read-out: Bcl-2 eKi, FP assay, NM = not measurable at top concentration (2.5 mM or solubility limit).

Like-named read-outs stand apart in the source and are kept apart here.

hBcl-2, sequence (P10415 1-207): as above
hMcl-1, sequence (Q07820 171-327 limits assumed): as the sequence (Q07820 171-327 limits assumed) above
mMcl-1, sequence (P97287 152-308 limits assumed): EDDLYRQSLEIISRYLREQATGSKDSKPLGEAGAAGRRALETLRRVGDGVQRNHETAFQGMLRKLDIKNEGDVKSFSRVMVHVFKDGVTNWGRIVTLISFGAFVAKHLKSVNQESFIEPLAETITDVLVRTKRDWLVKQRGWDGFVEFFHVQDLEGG

In the case of `O=C(O)c1csc(C2CNc3ccccc3O2)n1` (stereo not drawn) [Compound 23], the results for the Ki on hMcl-1 and at hBcl-2 (setting [2]) were 500 µM and over 2500 µM, respectively. On mMcl-1, this molecule came in with a dissociation constant (Kd) of 360 µM.

For the molecule `CCN1CC(c2nc(C(=O)O)cs2)Oc2ccccc21` (stereo not drawn) [Compound 24], the figures for the Ki on hMcl-1 and at hBcl-2 were 20 µM and 500 µM, respectively. The Kd at mMcl-1 is 220 µM.

As to `O=C(O)c1nc(C2COc3ccccc3O2)sc1Cc1ccccc1` (stereo not drawn) [Compound 22], the figures for the Ki on hMcl-1 and on hBcl-2 were 40 µM and 80 µM, respectively. The Kd turned out to be 85 µM on mMcl-1 and 140 µM at double His-TEV-hMcl-1.

For `O=C(O)c1csc(C2CN(Cc3ccccc3)c3ccccc3O2)n1` (stereo not drawn) [Compound 25], the figures for the Ki on hMcl-1 and at hBcl-2 were 40 µM and 800 µM, respectively. Also, the dissociation constant Kd came out at 40 µM at mMcl-1 and 450 µM on double His-TEV-hMcl-1.

As to `O=C(O)c1csc([C@H]2CN(Cc3ccccc3)c3ccccc3O2)n1` [Compound 26], the Ki on hMcl-1 is 30 µM; at hBcl-2 (setting [2]), over 2500 µM. The same molecule registered a dissociation constant Kd at mMcl-1 of 110 µM.

For the molecule `O=C(O)c1csc([C@@H]2CN(Cc3ccccc3)c3ccccc3O2)n1` [Compound 27], the Ki on hMcl-1 was 40 µM; on hBcl-2 (setting [2]), over 2500 µM. Besides, the affinity at mMcl-1, expressed as Kd, was 140 µM.

As to RGEEEQWAREIGAQLRRMADDLN [Puma peptide], in assay [1], the binding result is “binds”.

Usually Kd stands for the concentration at which binding is half-saturated. A higher Kd goes with lower affinity.

The record behind these values is paper PMC6648477 (ACS Omega, 2019).
